This passage reports viability, T/C and IC50 results from PubChem BioAssay AID1918949 (Molecular Pharmacology Branch, DTP, NCI, 2023).

By viability, T/C is commonly meant the result in the treated group divided by that in the control group, in per cent. In general, pIC50 refers to the negative decadic logarithm of the IC50, by convention in mol/L.

This experiment relates to K24384-001-R-PDC complex spheroid viability. As to the kind of experiment: Anticancer human tumor K24384-001-R-PDC patient-derived pancreatic adenocarcinoma cell line growth inhibition. The note with it: for viability, T/C: stronger effect = lower value. Put shortly:
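Complex spheroids of tumor cells with HUVEC and human MSCs, exposed to iadademstat combined with other agents. Each agent tested in half-log steps from near clinical Cmax (else 10 microM top), DMSO ≤0.25%.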

The mark [1] stands for this setting: curve of first compound, second compound 0.1 µM.
[2] abbreviates: curve of first compound, second compound 0.316 µM.
[3] abbreviates: curve of first compound, second compound 1 µM.
Setting [4] is: curve of first compound, second compound 3.16 µM.
Setting [5] is: curve of first compound, second compound 10 µM.
[6] abbreviates: second compound 0.1 µM, first compound 0.0316 µM.
[7] abbreviates: second compound 0.1 µM, first compound 0.1 µM.
The mark [8] stands for this setting: second compound 0.1 µM, first compound 0.316 µM.
Setting [9] is: second compound 0.1 µM, first compound 1 µM.
[10] abbreviates: second compound 0.1 µM, first compound 3.16 µM.
The mark [11] stands for this setting: second compound 0.1 µM, first compound 10 µM.
Setting [12] is: second compound 0.316 µM, first compound 0.0316 µM.
[13] abbreviates: second compound 0.316 µM, first compound 0.1 µM.
[14] abbreviates: second compound 0.316 µM, first compound 0.316 µM.
Where [15] appears, read: second compound 0.316 µM, first compound 1 µM.
[16] abbreviates: second compound 0.316 µM, first compound 3.16 µM.
Setting [17] is: second compound 0.316 µM, first compound 10 µM.
[18] abbreviates: second compound 1 µM, first compound 0.0316 µM.
[19] abbreviates: second compound 1 µM, first compound 0.1 µM.
The mark [20] stands for this setting: second compound 1 µM, first compound 0.316 µM.
Where [21] appears, read: second compound 1 µM, first compound 1 µM.
Setting [22] is: second compound 1 µM, first compound 3.16 µM.
Where [23] appears, read: second compound 1 µM, first compound 10 µM.
[24] abbreviates: second compound 3.16 µM, first compound 0.0316 µM.
Where [25] appears, read: second compound 3.16 µM, first compound 0.1 µM.
The mark [26] stands for this setting: second compound 3.16 µM, first compound 0.316 µM.
Where [27] appears, read: second compound 3.16 µM, first compound 1 µM.
Where [28] appears, read: second compound 3.16 µM, first compound 3.16 µM.
Setting [29] is: second compound 3.16 µM, first compound 10 µM.
Where [30] appears, read: second compound 10 µM, first compound 0.0316 µM.
The mark [31] stands for this setting: second compound 10 µM, first compound 0.1 µM.
[32] abbreviates: second compound 10 µM, first compound 0.316 µM.
The mark [33] stands for this setting: second compound 10 µM, first compound 1 µM.
Where [34] appears, read: second compound 10 µM, first compound 3.16 µM.
Where [35] appears, read: second compound 10 µM, first compound 10 µM.

Each structure is given as a SMILES string. pIC50: −log10 of the molar value. Several values for one entry are separate records, joined by “and”; a condition that tells them apart may be missing. Equal values may be shown once. Bounds are passed on as bounds.
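Also: spheroids exposed to agents for seven days before luminescence viability reading.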
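For viability, T/C in this document: 100% = DMSO vehicle control viability.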

Turning to `CCc1c2c(nc3ccc(O)cc13)-c1cc3c(c(=O)n1C2)COC(=O)[C@]3(O)CC`, the viability, T/C is 54.8% and 42% (compound 0.000949 µM); 49.9% and 39.2% (compound 0.003 µM); 32.7% (compound 0.00949 µM); 9.62% and 11.7% (compound 0.03 µM); 6.2% and 6.67% (compound 0.0949 µM); 5% and 5.21% (compound 0.3 µM). Moreover, the pIC50 (curve of compound) was 8.50 and > 9.02.
Regarding `CC1(C)CCC(CN2CCN(c3ccc(C(=O)NS(=O)(=O)c4ccc(NCC5CCOCC5)c([N+](=O)[O-])c4)c(Oc4cnc5[nH]ccc5c4)c3)CC2)=C(c2ccc(Cl)cc2)C1`, the viability, T/C is 95.9% and 81.9% (compound 0.0316 µM); 97.3% and 90.8% (compound 0.1 µM); 96.5% and 92.7% (compound 0.316 µM); 106% and 78.1% (compound 1 µM); 63.5% and 67.6% (compound 3.16 µM); 0.81% and 1.22% (compound 10 µM). Besides, the pIC50 (curve of compound) is 5.39 and 5.37.
Regarding `COc1cc(C2c3cc4c(cc3C(OC3OC5COC(C)OC5C(O)C3O)C3COC(=O)C23)OCO4)cc(OC)c1O` (stereo not given), the viability, T/C (compound 0.00949 µM) is 96.2% and 95.2%; the viability, T/C (compound 0.03 µM) is 91.9% and 98.1%; the viability, T/C (compound 0.0949 µM) is 82% and 74.3%; the viability, T/C (compound 0.3 µM) was 62.3% and 52.5%; the viability, T/C (compound 0.949 µM) is 59.8% and 49.5%; the viability, T/C (compound 3 µM) was 42.1% and 33%. For the same compound, the pIC50 (curve of compound) was 5.80 and 6.34.
`Nc1ncn(C2CC(O)C(CO)S2)c(=O)n1` (stereo not given): the viability, T/C reads like this: (compound 0.000949 µM) 93.1% and 95.2%; (compound 0.003 µM) 96.3% and 88.6%; (compound 0.00949 µM) 96.3% and 85.4%; (compound 0.03 µM) 83.3% and 89.3%; (compound 0.0949 µM) 81.3% and 69.1%; (compound 0.3 µM) 55.9% and 56.2%. Besides, the pIC50 (curve of compound) is under 6.52.
As to `COc1ccc([C@@H](O)c2cc(-c3ncnc4cc(N5CCOCC5)ccc34)c(F)cc2Cl)nn1` + NC1CCC(NC2CC2c2ccccc2)CC1, the pIC50 is 5.98 under setting [1]; 5.93 under setting [2]; 5.95 under setting [3]; 5.93 under setting [4]; 6.29 under setting [5]. Besides, the viability, T/C was 94.5% under setting [6]; 114% under setting [7]; 89.8% under setting [8]; 49% under setting [9]; 30.2% under setting [10]; 14.2% under setting [11]. The viability, T/C under setting [12] is 112%; the viability, T/C under setting [13] is 87.4%; the viability, T/C under setting [14] is 69.6%; the viability, T/C under setting [15] was 59.8%; the viability, T/C under setting [16] was 30.8%; the viability, T/C under setting [17] is 13.9%. The viability, T/C runs as follows: under setting [18], 79.7%; under setting [19], 98.3%; under setting [20], 79.2%; under setting [21], 50.4%; under setting [22], 28.4%; under setting [23], 13.4%. In addition, the viability, T/C was 77.7% under setting [24]; 102% under setting [25]; 77.9% under setting [26]; 55% under setting [27]; 23.9% under setting [28]; 14.7% under setting [29]. Moreover, the viability, T/C runs as follows: under setting [30], 71.3%; under setting [31], 74.8%; under setting [32], 56.7%; under setting [33], 37.7%; under setting [34], 22.9%; under setting [35], 12.1%.
With `CC(C)CC(NC(=O)CNC(=O)c1cc(Cl)ccc1Cl)B1OC(=O)CC(CC(=O)O)(C(=O)O)O1` (stereo not given) + NC1CC1c1ccc(-c2cccc(O)c2)cc1, the pIC50 reads like this: under setting [1], 8.05; under setting [2], 8.04; under setting [3], 8.07; under setting [4], 8.06; under setting [5], 8.15. Also, the viability, T/C is, setting by setting: (second compound 0.1 µM, first compound 0.000316 µM) 121%; (second compound 0.1 µM, first compound 0.001 µM) 123%; (second compound 0.1 µM, first compound 0.00316 µM) 97.3%; (second compound 0.1 µM, first compound 0.01 µM) 46.6%; under setting [6], 4.82%; under setting [7], 0.93%. The viability, T/C reads like this: (second compound 0.316 µM, first compound 0.000316 µM) 114%; (second compound 0.316 µM, first compound 0.001 µM) 113%; (second compound 0.316 µM, first compound 0.00316 µM) 95.4%; (second compound 0.316 µM, first compound 0.01 µM) 47.8%; under setting [12], 4.68%; under setting [13], 0.79%. Further, the viability, T/C was 112% (second compound 1 µM, first compound 0.000316 µM); 129% (second compound 1 µM, first compound 0.001 µM); 117% (second compound 1 µM, first compound 0.00316 µM); 38.8% (second compound 1 µM, first compound 0.01 µM); 4.54% under setting [18]; 0.98% under setting [19]. Besides, the viability, T/C by setting is: (second compound 3.16 µM, first compound 0.000316 µM) 117%; (second compound 3.16 µM, first compound 0.001 µM) 109%; (second compound 3.16 µM, first compound 0.00316 µM) 101%; (second compound 3.16 µM, first compound 0.01 µM) 42.9%; under setting [24], 4.31%; under setting [25], 0.85%. Further, the viability, T/C reads like this: (second compound 10 µM, first compound 0.000316 µM) 111%; (second compound 10 µM, first compound 0.001 µM) 136%; (second compound 10 µM, first compound 0.00316 µM) 103%; (second compound 10 µM, first compound 0.01 µM) 28.1%; under setting [30], 2.96%; under setting [31], 0.48%.
On to `O=C(c1cc(Cc2n[nH]c(=O)c3ccccc23)ccc1F)N1CCN(C(=O)C2CC2)CC1` + NC1CC1c1ccc(-c2cccc(O)c2)cc1, for which the pIC50 is under 5.00 under setting [1]; under 5.00 under setting [2]; under 5.00 under setting [3]; under 5.00 under setting [4]; under 5.00 under setting [5]. Moreover, the viability, T/C is 96.3% under setting [6]; 73.9% under setting [7]; 84.4% under setting [8]; 65.8% under setting [9]; 56.2% under setting [10]; 67.4% under setting [11]. The viability, T/C under setting [12] is 89.8%; the viability, T/C under setting [13] was 80.5%; the viability, T/C under setting [14] is 79.5%; the viability, T/C under setting [15] was 77%; the viability, T/C under setting [16] is 57.6%; the viability, T/C under setting [17] is 66.1%. In addition, the viability, T/C under setting [18] was 78.7%; the viability, T/C under setting [19] is 73.5%; the viability, T/C under setting [20] was 72.6%; the viability, T/C under setting [21] was 81%; the viability, T/C under setting [22] was 66.6%; the viability, T/C under setting [23] is 70.8%. The viability, T/C under setting [24] was 78.7%; the viability, T/C under setting [25] is 77.3%; the viability, T/C under setting [26] is 83.8%; the viability, T/C under setting [27] was 72.2%; the viability, T/C under setting [28] is 68%; the viability, T/C under setting [29] is 59.8%. Further, the viability, T/C runs as follows: under setting [30], 86.6%; under setting [31], 81.5%; under setting [32], 76.5%; under setting [33], 87.4%; under setting [34], 54.5%; under setting [35], 62.3%.
`O=C(C=Cc1cccc(S(=O)(=O)Nc2ccccc2)c1)NO`: the viability, T/C is 120% and 101% (compound 0.00949 µM); 127% and 112% (compound 0.03 µM); 114% and 105% (compound 0.0949 µM); 38% and 43.9% (compound 0.3 µM); 4.5% and 5.62% (compound 0.949 µM); 0.23% and 0.24% (compound 3 µM). Besides, for the setting “curve of compound”, the pIC50 was 6.60 and 6.57.
